From publication PMC11289651, “Ruthenium(II) complexes of curcumin and β-diketone derivatives: effect of structural modifications on their cytotoxicity” (Royal Society Open Science, 2024)
Like-named read-outs stand apart in the source and are kept apart here.

Key:
Assay type in all cases: cell-based
[1] = tested on: MCF-7 (hormone-dependent breast cancer); assay: MTT cytotoxicity assay, MCF-7; details: for IC50: read-out: IC50 MCF-7; for IC50 fold lower than that of cisplatin: MCF-7 cells; for SI^2 = IC50 (MCF-10A)/IC50 (MCF-7): selectivity index
Experimental: (§1) HTB-26), MCF-7 (hormone-dependent breast cancer, ATCC: HTB−22), A549 (lung cancer, ATCC: CCL-185) and A2780cis (cisplatin-resistant ovarian cancer), and the non-tumour cell lines: MCF-10A (breast epithelial cells, ATCC: CRL-10317) and MRC-5 (lung fibroblast, ATCC: […] All the cells were maintained at 37°C in a humidified incubator with a 5% CO2 atmosphere. […] Then, the cells were treated with the compounds, solubilized in DMSO, at different concentrations and the plates were incubated for 48 h. To solubilize cisplatin, dimethylformamide (DMF) was used. The percentage of DMSO and DMF used in the assay was 0.5%. Afterwards, 50 μl of MTT (0.5 mg ml^−1 in phosphate-buffered saline) was added to each well of the plate and the plates were incubated for 4 h at 37°C. Then, the culture medium was removed, and the water-insoluble formazan crystals formed were solubilized by the addition of 100 μl isopropanol. The absorbance was recorded at 540 nm using a microplate reader. The half maximal inhibitory concentration (IC50) values were obtained using the GRAPHPAD PRISM software.

[2] = tested on: MDA-MB-231 (triple-negative breast cancer); assay: MTT cytotoxicity assay, MDA-MB-231; details: for IC50: read-out: IC50 MDA-MB-231; for SI^1 = IC50 (MCF-10A)/IC50 (MDA-MB-231): selectivity index
Experimental: as §1

[3] = tested on: A2780cis (cisplatin-resistant ovarian cancer); assay: MTT cytotoxicity assay, A2780cis; details: for IC50: read-out: IC50 A2780cis; for SI^3 = IC50 (MRC-5)/IC50 (A2780cis): selectivity index, column head prints IS^3
Experimental: as §1

[4] = tested on: MDA-MB-231, MCF-7, A549, A2780cis, MRC-5 and MCF-10A cell lines; assay: MTT cytotoxicity assay, all cell lines studied; details: tested concentrations (<100 µM)
Experimental: The MDA-MB-231, A549 and MRC5 cell lines were cultured in Dulbecco’s modified eagle medium (DMEM) containing 10% fetal bovine serum (FBS), penicillin (100 IU ml^−1), streptomycin (100 mg ml^−1) and L-glutamine (2 mM). The MCF-7 and A2780cis cells were grown in the Roswell Park Memorial Institute (RPMI) containing 10% FBS, penicillin (100 IU ml^−1), streptomycin (100 mg ml^−1) and L-glutamine (2 mM). The MCF-10A cells were grown in DMEM nutrient mixture F-12 (DMEM F-12) containing 5% fetal horse serum, epidermal growth factor (EGF) (20 ng ml^−1), hydrocortisone (0.5 µg ml^−1), insulin (0.01 mg ml^−1), 1% penicillin and 1% streptomycin. All the cells were maintained at 37°C in a humidified incubator with a 5% CO2 atmosphere.
The cytotoxic activities of the free ligands and complexes were analysed by MTT (3-[4,5-dimethylthiazol-2-yl]-2,5 diphenyl tetrazolium bromide) assay [32]. For that, cells were plated in 96-well plates (1.5 × 10^4 cells well^−1) and kept for 24 h in an incubator with 5% CO2 and 37°C for adherence. Then, the cells were treated with the compounds, solubilized in DMSO, at different concentrations and the plates were incubated for 48 h. […] The percentage of DMSO and DMF used in the assay was 0.5%. […] The absorbance was recorded at 540 nm using a microplate reader.

[5] = tested on: MCF-10A (non-tumour breast epithelial cells); assay: MTT cytotoxicity assay, MCF-10A; details: read-out: IC50 MCF-10A
Experimental: as §1

[6] = tested on: MRC-5 (non-tumour lung fibroblast); assay: MTT cytotoxicity assay, MRC-5; details: read-out: IC50 MRC-5
Experimental: as §1

A549 (lung cancer) = assay: MTT cytotoxicity assay, A549; details: for IC50: read-out: IC50 A549; for IC50 of cisplatin fold higher than IC50 of the complex: A549 cells; for SI^4 = IC50 (MRC-5)/IC50 (A549): selectivity index, column head prints IS^4
Experimental: as §1

[7] = Homo sapiens, MCF7, MTT, 48 h incubation
[8] = Homo sapiens, MDA-MB-231, MTT, 48 h incubation
[9] = Homo sapiens, MCF-10A, MTT, 48 h incubation
[10] = Homo sapiens, MRC5, MTT, 48 h incubation
[11] = Homo sapiens, A549, MTT, 48 h incubation

With `CC(=O)CC(C)=O` [acac, acetylacetonate] the IC50 [1, 7] was greater than 100 µM, the IC50 [2, 8] was greater than 100 µM and the IC50 ([3]; A2780cis, MTT, 48 h incubation) was greater than 100 µM. For the same compound, the “cytotoxic activity (in words)” value [4] was “did not exhibit activity”, the IC50 [5, 9] was greater than 100 µM and the IC50 [6, 10] was greater than 100 µM. It also gave an IC50 (A549 (lung cancer); [11]) greater than 100 µM.
In the case of `CC(=O)C=C(C)[O-].F[P-](F)(F)(F)(F)F.[Ru+2].c1ccc(-c2ccccn2)nc1.c1ccc(P(c2ccccc2)c2ccccc2)cc1.c1ccc(P(c2ccccc2)c2ccccc2)cc1` [Ru1, [Ru(acac)(PPh3)2(bipy)]PF6], the “IC50 fold lower than that of cisplatin” value [1] is reported as 7.5 fold, the IC50 ([1]; MTT, 48 h incubation) is reported as 1.86 µM and the “SI^2 = IC50 (MCF-10A)/IC50 (MCF-7)” value [1] is reported as 0.91. The IC50 ([2]; MTT, 48 h incubation) was 2.09 ± 0.46 µM, the “SI^1 = IC50 (MCF-10A)/IC50 (MDA-MB-231)” value [2] was 0.81 and the IC50 ([3]; MTT, 48 h incubation) was 0.59 µM. For the same compound, the “SI^3 = IC50 (MRC-5)/IC50 (A2780cis)” value [3] was 8.34, the IC50 ([5]; MTT, 48 h incubation) was 1.7 µM and the IC50 ([6]; MTT, 48 h incubation) was 4.92 µM. The “IC50 of cisplatin fold higher than IC50 of the complex” value (A549 (lung cancer)) was 8 fold, the IC50 (A549 (lung cancer); MTT, 48 h incubation) was 1.43 µM and the “SI^4 = IC50 (MRC-5)/IC50 (A549)” value (A549 (lung cancer)) was 3.44.
With `N.N.[Cl][Pt][Cl]` [cisplatin, cis-diamminedichloridoplatinum(II)] the IC50 ([1]; MTT, 48 h incubation) was 14 µM, the IC50 ([2]; MTT, 48 h incubation) was 10.2 µM and the IC50 ([5]; MTT, 48 h incubation) was 29.4 µM.
`F[P-](F)(F)(F)(F)F.O=C(C=C([O-])c1ccccc1)c1ccccc1.[Ru+2].c1ccc(-c2ccccn2)nc1.c1ccc(P(c2ccccc2)c2ccccc2)cc1.c1ccc(P(c2ccccc2)c2ccccc2)cc1` [Ru2, [Ru(dbm)(PPh3)2(bipy)]PF6] was tested, and the “IC50 fold lower than that of cisplatin” value [1] was 8.0 fold, the IC50 ([1]; MTT, 48 h incubation) was 1.74 µM and the “SI^2 = IC50 (MCF-10A)/IC50 (MCF-7)” value [1] was 0.98. The IC50 ([2]; MTT, 48 h incubation) was 3.37 µM, the “SI^1 = IC50 (MCF-10A)/IC50 (MDA-MB-231)” value [2] was 0.50 and the IC50 ([3]; MTT, 48 h incubation) was 0.39 µM. The “SI^3 = IC50 (MRC-5)/IC50 (A2780cis)” value [3] was 12.43, the IC50 ([5]; MTT, 48 h incubation) was 1.71 µM and the IC50 ([6]; MTT, 48 h incubation) was 4.85 µM. For the same compound, the “IC50 of cisplatin fold higher than IC50 of the complex” value (A549 (lung cancer)) was 11 fold, the IC50 (A549 (lung cancer); MTT, 48 h incubation) was 1.06 µM and the “SI^4 = IC50 (MRC-5)/IC50 (A549)” value (A549 (lung cancer)) was 4.57.
For `COc1cc(C=CC(=O)C=C([O-])C=Cc2ccc(O)c(OC)c2)ccc1O.F[P-](F)(F)(F)(F)F.[Ru+2].c1ccc(-c2ccccn2)nc1.c1ccc(P(c2ccccc2)c2ccccc2)cc1.c1ccc(P(c2ccccc2)c2ccccc2)cc1` [Ru3, [Ru(cur)(PPh3)2(bipy)]PF6], the “SI^2 = IC50 (MCF-10A)/IC50 (MCF-7)” value [1] was 0.45, the IC50 ([2]; MTT, 48 h incubation) was 6.8 µM and the “SI^1 = IC50 (MCF-10A)/IC50 (MDA-MB-231)” value [2] was 0.94. It also gave an IC50 ([3]; MTT, 48 h incubation) of 0.82 µM, an IC50 ([5]; MTT, 48 h incubation) of 6.41 µM and an IC50 ([6]; MTT, 48 h incubation) greater than 30 µM. The IC50 (A549 (lung cancer); MTT, 48 h incubation) was greater than 30 µM.
With `COc1cc(/C=C/C(=O)CC(=O)/C=C/c2ccc(O)c(OC)c2)ccc1O` [cur, curcumin] the IC50 [1, 7] was 20 µM, the “SI^2 = IC50 (MCF-10A)/IC50 (MCF-7)” value [1] was 0.84 and the IC50 [2, 8] was 29.7 µM. For the same compound, the “SI^1 = IC50 (MCF-10A)/IC50 (MDA-MB-231)” value [2] was 0.57, the IC50 ([3]; A2780cis, MTT, 48 h incubation) was 4.02 µM and the “SI^3 = IC50 (MRC-5)/IC50 (A2780cis)” value [3] was 2.24. The IC50 [5, 9] was 16.9 µM, the IC50 [6, 10] was 8.99 µM and the IC50 (A549 (lung cancer); [11]) was 33.3 µM. The “SI^4 = IC50 (MRC-5)/IC50 (A549)” value (A549 (lung cancer)) was 0.27.
`O=C(CC(=O)c1ccccc1)c1ccccc1` [dbm, dibenzoylmethane] was tested, and the IC50 ([1]; Homo sapiens, MCF7, 48 h) was 11.7 µM, the “SI^2 = IC50 (MCF-10A)/IC50 (MCF-7)” value [1] was 4.34 and the IC50 ([2]; Homo sapiens, MDA-MB-231, 48 h) was 59.6 µM. The “SI^1 = IC50 (MCF-10A)/IC50 (MDA-MB-231)” value [2] was 0.85, the IC50 ([3]; A2780cis, 48 h) was 62.6 µM and the “SI^3 = IC50 (MRC-5)/IC50 (A2780cis)” value [3] was 0.15. The IC50 ([5]; Homo sapiens, MCF-10A, 48 h) was 50.7 µM, the IC50 ([6]; Homo sapiens, MRC5, 48 h) was 9.54 µM and the IC50 (A549 (lung cancer); Homo sapiens, A549, 48 h) was 23.1 µM. For the same compound, the “SI^4 = IC50 (MRC-5)/IC50 (A549)” value (A549 (lung cancer)) was 0.41.
